In patent US20240174648A1, “Small Molecule Compound” (Technoderma Medicines Pte Ltd, priority 2019, published 2024):

Assays:
Tyk2 = Tyk2 (Homo sapiens, UniProt P29597); assay: JAK kinase inhibition assay (EZ Reader, peptide substrate phosphorylation) - Tyk2; format: biochemical; settings: Tyk2 kinase 1 nM; 8 concentration points, max 10 μM
Description: (§1) Assay for Identifying Inhibitory Effects of Compounds on JAK Kinases
(§2) Janus kinases (JAK), including JAK1, JAK2, JAK3 and Tyk2, transduce a cytokine-mediated signal through a JAK-STAT pathway. The kinases are 120-140 kDa in size and have 7 determined homology regions: JH1 to JH7. JH1 is an important region for enzymatic activity and has typical characteristics of tyrosine kinases. Phosphorylation of tyrosine leads to a change in the conformation of JAK protein, thereby promoting binding of substrate. The JAK-STAT system includes three main parts: receptors penetrating a cell membrane, Janus kinases binding to the receptors, and signal transducers and activators of transcription (STAT) for transmitting signals to a nucleus and DNA. When cytokines bind to receptors, JAK phosphorylates the receptors and attracts STAT proteins. The STAT proteins are also phosphorylated and combined with one another to form dimers. The dimers enter the nucleus and bind to DNA, thereby leading to gene transcription.
(§3) EZ Reader from PerkinElmer can be used to detect the phosphorylation of polypeptide substrates catalyzed by kinases. The device is based on microfluidic techniques, and can directly detect fluorescently labeled substrates and products. The separation step is achieved by controlling the pressure and electric field strength in the microfluidic chip. In kinase assays, a product conversion ratio is usually controlled to be 20-30%. A biological test is used to identify inhibitory effects of compounds on JAKs.
(§4) Compound powder was dissolved in DMSO, sealed and stored in a freezer under −20° C. The in-house compound Ref1 was used as a positive control for JAK1, JAK2 and Tyk2 tests, and Ref2 was used as a positive control for JAK3 tests.
(§5) S2.8. Assay buffer: 20 mM HEPES buffer, pH 7.4, 10 mM magnesium chloride, 0.01% bovine serum albumin BSA, 0.0005% Tween-20 and 1 mM dithiothreitol solution.
(§6) S2.9. Stop buffer: 180 mM HEPES buffer, 20 mM ethylenediaminetetraacetic acid and 0.2% coating reagent 3.
(§7) S2.10. Separation buffer: 100 mM HEPES buffer, 10 mM ethylenediaminetetraacetic acid, 0.0005% Tween 20, 0.1% coating reagent 3 and 1% dimethyl sulfoxide.
(§8) The compound was dissolved in dimethyl sulfoxide and diluted to 10 mM concentration, a certain volume of solution was taken and diluted to 0.6 mM concentration, 10 μL of the 0.6 mM dilution was added to a 384-well microplate, and then was diluted 3-fold with a total of 8 concentration points.
(§9) Positive control (HPE1): Ref1, final concentration: 10 μM […]
(§10) Negative control (ZPE): DMSO, final content: 1.6%
(§11) Compounds: maximum final concentration: 10 μM; 3-fold dilution, 8 concentration points and 2 duplicates.
(§12) S4.1. 250 nL of the compound was added to each well of the assay microplate by using ECHO, and centrifuged at 1000 rpm for 1 minute.
(§13) S4.2. 5 μL of the assay buffer was added and agitated for a few seconds to fully dissolve the compound.
(§14) S4.3. 5 μL of 3× substrate solution and 5 μL of 3× kinase solution were added and centrifuged at 800 rpm for 1 minute.
(§15) S4.4. Final concentrations of JAK1, JAK2, JAK3 and Tyk2 kinases in the reaction system were 20 nM, 1 nM, 1 nM and 1 nM respectively.
(§16) S4.5. Incubation at room temperature, where kinases had time differences, and different batches of kinases had time differences.
(§17) S4.6. When 20%-30% of the reaction completed, 15 μL of stop buffer was added to stop the reaction, and centrifuged at 1000 rpm for 2 minutes.
(§18) S4.7. The microplates were placed on EZ Reader for reading.
(§19) S4.8. Readings on EZ Reader were calculated by using a peak height, where product conversion ratio (%)=product/(product+substrate)*100.
(§20) 5. Data Processing: IC50 calculation
(§21) A graphing software Xlfit was used to form a concentration curve of the test compound, and an IC50 value was calculated.
(§22) “A” means “≥10 μM”; “B” means “≥1 μM and <10 μM”; “C” means “≥0.1 μM and <1 μM”; and “D” means “<0.1 μM”.

JAK1 = JAK1 (Homo sapiens, UniProt P23458); assay: JAK kinase inhibition assay (EZ Reader, peptide substrate phosphorylation) - JAK1; format: biochemical; settings: JAK1 kinase 20 nM; 8 concentration points, max 10 μM
Description: as §1, §2, §3, §4, §5, §6, §7, §8, §9, §10, §11, §12, §13, §14, §15, §16, §17, §18, §19, §20, §21, §22

Sequence of JAK1 (P23458 whole entry): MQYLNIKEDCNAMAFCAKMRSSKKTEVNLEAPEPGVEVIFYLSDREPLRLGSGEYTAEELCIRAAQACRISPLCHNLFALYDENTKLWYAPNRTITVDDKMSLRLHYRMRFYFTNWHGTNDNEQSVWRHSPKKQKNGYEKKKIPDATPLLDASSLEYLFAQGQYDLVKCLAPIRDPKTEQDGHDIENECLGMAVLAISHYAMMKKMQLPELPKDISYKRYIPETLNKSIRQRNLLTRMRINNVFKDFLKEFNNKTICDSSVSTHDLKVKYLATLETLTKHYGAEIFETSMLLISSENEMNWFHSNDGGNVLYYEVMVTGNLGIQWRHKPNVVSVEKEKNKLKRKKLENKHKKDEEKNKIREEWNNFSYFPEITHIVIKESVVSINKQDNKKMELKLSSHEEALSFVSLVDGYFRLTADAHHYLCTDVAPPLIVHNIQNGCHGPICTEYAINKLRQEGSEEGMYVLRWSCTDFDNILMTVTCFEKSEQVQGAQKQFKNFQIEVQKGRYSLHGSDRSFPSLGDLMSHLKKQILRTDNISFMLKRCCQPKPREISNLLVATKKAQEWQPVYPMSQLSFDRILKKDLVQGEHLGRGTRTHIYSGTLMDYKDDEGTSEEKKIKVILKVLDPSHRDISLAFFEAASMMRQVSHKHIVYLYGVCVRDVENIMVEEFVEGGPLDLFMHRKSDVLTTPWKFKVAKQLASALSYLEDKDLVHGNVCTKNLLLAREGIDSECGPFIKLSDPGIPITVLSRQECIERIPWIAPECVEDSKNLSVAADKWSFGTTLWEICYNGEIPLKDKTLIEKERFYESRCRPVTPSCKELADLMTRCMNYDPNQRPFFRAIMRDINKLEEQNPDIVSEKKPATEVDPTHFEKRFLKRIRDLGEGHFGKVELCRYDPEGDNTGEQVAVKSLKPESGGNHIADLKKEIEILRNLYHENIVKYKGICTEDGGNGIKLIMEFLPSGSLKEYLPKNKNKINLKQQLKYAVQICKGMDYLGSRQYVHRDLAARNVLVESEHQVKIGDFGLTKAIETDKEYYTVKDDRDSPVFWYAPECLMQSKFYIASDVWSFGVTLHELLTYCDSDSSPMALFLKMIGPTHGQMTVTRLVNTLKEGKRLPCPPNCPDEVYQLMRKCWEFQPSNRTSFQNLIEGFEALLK
Sequence of Tyk2 (P29597 whole entry): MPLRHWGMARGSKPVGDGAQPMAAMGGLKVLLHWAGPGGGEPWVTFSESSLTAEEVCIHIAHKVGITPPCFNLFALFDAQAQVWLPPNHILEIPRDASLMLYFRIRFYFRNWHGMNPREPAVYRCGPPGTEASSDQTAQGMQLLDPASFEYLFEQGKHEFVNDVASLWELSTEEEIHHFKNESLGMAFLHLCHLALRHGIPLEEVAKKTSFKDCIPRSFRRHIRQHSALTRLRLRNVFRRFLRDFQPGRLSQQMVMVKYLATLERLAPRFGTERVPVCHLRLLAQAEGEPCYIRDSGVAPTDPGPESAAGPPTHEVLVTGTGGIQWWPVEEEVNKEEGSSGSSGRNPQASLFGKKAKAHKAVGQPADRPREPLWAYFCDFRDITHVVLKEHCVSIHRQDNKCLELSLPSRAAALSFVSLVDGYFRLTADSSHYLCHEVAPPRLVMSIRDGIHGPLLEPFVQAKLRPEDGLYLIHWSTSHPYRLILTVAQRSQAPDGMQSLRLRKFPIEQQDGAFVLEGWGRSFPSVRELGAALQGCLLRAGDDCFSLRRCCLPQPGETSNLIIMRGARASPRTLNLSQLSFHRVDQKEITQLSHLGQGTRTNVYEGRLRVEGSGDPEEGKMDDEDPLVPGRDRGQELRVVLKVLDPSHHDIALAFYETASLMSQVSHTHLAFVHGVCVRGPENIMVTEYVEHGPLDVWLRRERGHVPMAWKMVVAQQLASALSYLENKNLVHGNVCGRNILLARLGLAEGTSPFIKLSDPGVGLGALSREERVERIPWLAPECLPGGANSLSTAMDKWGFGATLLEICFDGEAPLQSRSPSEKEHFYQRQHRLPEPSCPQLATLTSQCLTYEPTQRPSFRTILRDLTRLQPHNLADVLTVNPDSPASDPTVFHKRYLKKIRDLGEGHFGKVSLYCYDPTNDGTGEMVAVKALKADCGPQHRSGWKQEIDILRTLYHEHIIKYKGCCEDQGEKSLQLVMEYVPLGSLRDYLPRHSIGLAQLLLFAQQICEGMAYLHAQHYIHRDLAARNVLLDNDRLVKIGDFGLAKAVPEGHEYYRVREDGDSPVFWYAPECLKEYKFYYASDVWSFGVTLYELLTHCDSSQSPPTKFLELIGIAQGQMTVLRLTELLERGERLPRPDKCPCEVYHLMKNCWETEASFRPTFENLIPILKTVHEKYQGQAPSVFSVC

SMILES	IC50 (Tyk2) [µM]	IC50 (JAK1) [µM]
Cn1cc(Nc2nccc(-c3cnc(NC(=O)C4CC4)nc3)n2)cn1 [TDM-180904, N-(2-((1-methyl-1H-pyrazol-4-yl)amino)-[4,5′-bipyrimidin]-2′-yl)cyclopropanecarboxamide]	1 to 10	1 to 10
Cc1cc(-c2ccnc(Nc3cnn(C)c3)n2)cnc1NC(=O)CC#N [TDM-180907, 2-cyano-N-(3-methyl-5-(2-((1-methyl-1H-pyrazol-4-yl)amino)pyrimidin-4-yl)pyridin-2-yl)acetamide]	1 to 10	1 to 10
Cn1cc(Nc2nccc(-n3ccc4c(NC(=O)C5CC5)cccc43)n2)cn1 [TDM-180876, N-(1-(2-((1-methyl-1H-pyrazol-4-yl)amino)pyrimidin-4-yl)-1H-indole-4-yl)cyclopropanemethane]	0.1 to 1	< 0.1
Cn1cc(Nc2nccc(-c3ccc(NS(=O)(=O)C4CCOCC4)nc3)n2)cn1 [TDM-180875, N-(5-(2-((1-methyl-1H-pyrazol-4-yl)amino)pyrimidin-4-yl)pyridin-2-yl)tetrahydro-2H-pyran-4-sulfonamide]	1 to 10	0.1 to 1
Cn1cc(Nc2nccc(-c3ccc(NC(=O)CO)cc3)n2)cn1 [TDM-180791, 2-hydroxy-N-(4-(2-((1-methyl-1H-pyrazol-4-yl)amino)pyrimidin-4-yl)phenyl)acetamide]	1 to 10	0.1 to 1
Cn1cc(Nc2nccc(-c3ccc(NC(=O)CC(F)(F)F)c4cc[nH]c34)n2)cn1 [TDM-180924, 3,3,3-trifluoro-N-(7-(2-((1-methyl-1H-pyrazol-4-yl)amino)pyrimidin-4-yl)-1H-indol-4-yl)propanamide]	1 to 10	0.1 to 1
Cc1cc(-c2ccnc(Nc3cnn(C)c3)n2)cnc1NC(=O)C1CC1(F)F (stereo not shown) [TDM-180906, 2,2-difluoro-N-(3-methyl-5-(2-((1-methyl-1H-pyrazol-4-yl)amino)pyrimidin-4-yl)pyridin-2-yl)cyclopropane-1-carboxamide]	1 to 10	0.1 to 1
CCOCCS(=O)(=O)Nc1ccc(-c2ccnc(Nc3cnn(C)c3)n2)cn1 [TDM-180877, 2-ethyoxyl-N-(5-(2-((1-methyl-1H-pyrazol-4-yl)amino)pyrimidin-4-yl)pyridin-2-yl)ethanesulfonamide]	1 to 10	0.1 to 1
COCC(=O)Nc1cc(-c2ccnc(Nc3cnn(C)c3)n2)ccn1 [TDM-180777, 2-methoxy-N-(4-(2-((1-methyl-1H-pyrazol-4-yl)amino)pyrimidin-4-yl)pyridin-2-yl)acetamide]	≥ 10	≥ 10
Cn1cc(Nc2nccc(-c3ccnc(NC(=O)C4CC4(F)F)c3)n2)cn1 (stereo not shown) [TDM-180792, 2,2-difluoro-N-(4-(2-((1-methyl-1H-pyrazol-4-yl)amino)pyrimidin-4-yl)pyridin-2-yl)cyclopropane-1-carboxamide]	≥ 10	≥ 10
Cn1cc(Nc2nccc(-c3ccc(NC(=O)CC4CC4)c4cc[nH]c34)n2)cn1 [TDM-180933]	≥ 10	1 to 10
Cn1cc(Nc2nccc(-c3ccc(NC(=O)C4CC4)c4[nH]ncc34)n2)cn1 [TDM-180884, N-(4-(2-((1-methyl-1H-pyrazol-4-yl)amino)pyrimidin-4-yl)-1H-indazol-7-yl)cyclopropanemethane]	0.1 to 1	0.1 to 1
Cn1cc(Nc2nccc(-c3ccc(NC(=O)CC4CC4)c4[nH]ncc34)n2)cn1 [TDM-180917, 2-cyclopropyl-N-(4-(2-((1-methyl-1H-pyrazol-4-yl)amino)pyrimidin-4-yl)-1H-indazol-7-yl)acetamide]	0.1 to 1	0.1 to 1
Cn1cc(Nc2nccc(-c3cnc(NC(=O)CC(F)(F)F)cn3)n2)cn1 [TDM-180905, 3,3,3-trifluoro-N-(5-(2-((1-methyl-1H-pyrazol-4-yl)amino)pyrimidin-4-yl)pyrazin-2-yl)propanamide]	1 to 10	0.1 to 1
CN1CCN(Cc2ccc(-c3ccnc(Nc4cnn(C)c4)n3)cc2)CC1 [TDM-180788, N-(1-methyl-1H-pyrazol-4-yl)-4-(4-((4-methylpiperazine-1-yl)methyl)phenyl)pyrimidin-2-amine]	1 to 10	1 to 10
Cn1cc(Nc2nccc(-c3cnc(NC(=O)C4CC4(F)F)c(F)c3)n2)cn1 (stereo not shown) [TDM-180888, 2,2-difluoro-N-(3-fluoro-5-(2-((1-methyl-1H-pyrazol-4-yl)amino)pyrimidin-4-yl)pyridin-2-yl)cyclopropanecarboxamide]	0.1 to 1	0.1 to 1
Cn1cc(Nc2nccc(-c3ccc(NC(=O)[C@H]4CC4(F)F)cc3)n2)cn1 [TDM-180936, (R)-2,2-difluoro-N-(4-(2-((1-methyl-1H-pyrazol-4-yl)amino)pyrimidin-4-yl)phenyl)cyclopropane-1-carboxamide]	0.1 to 1	< 0.1
Cn1cc(Nc2nccc(-c3cnc(NS(=O)(=O)Cc4ccccc4)nc3)n2)cn1 [TDM-180921, N-(2-((1-methyl-1H-pyrazol-4-yl)amino)-[4,5′-bipyrimidin]-2′-yl)-1-phenylmethanesulfonamide]	≥ 10	≥ 10
Cn1cc(Nc2nccc(-c3cnc(NC(=O)CC#N)c(F)c3)n2)cn1 [TDM-180890, 2-cyano-N-(3-fluoro-5-(2-((1-methyl-1H-pyrazol-4-yl)amino)pyrimidin-4-yl)pyridin-2-yl)acetamide]	1 to 10	0.1 to 1
Cn1cc(Nc2nccc(-c3cnc(NC(=O)CC#N)nc3)n2)cn1 [TDM-180902, 2-cyano-N-(2-((1-methyl-1H-pyrazol-4-yl)amino)-[4,5′-bipyrimidin]-2′-yl)acetamide]	1 to 10	1 to 10
Cn1cc(Nc2nccc(-c3ccc(NC(=O)CC(F)(F)F)c4[nH]ncc34)n2)cn1 [TDM-180900, 3,3,3-trifluoro-N-(4-(2-((1-methyl-1H-pyrazol-4-yl)amino)pyrimidin-4-yl)-1H-indazol-7-yl)propionamide]	0.1 to 1	< 0.1
Cn1cc(Nc2nccc(-c3ccc(NC(=O)C4CC4(F)F)c4[nH]ccc34)n2)cn1 (stereo not shown) [TDM-180868, 2,2-difluoro-N-(4-(2-((1-methyl-1H-pyrazol-4-yl)amino)pyrimidin-4-yl)-1H-indol-7-yl)cyclopropane-1-carboxamide]	< 0.1	< 0.1
CCCS(=O)(=O)Nc1ccc(-c2ccnc(Nc3cnn(C)c3)n2)cc1 [TDM-180893, N-(4-(2-((1-methyl-1H-pyrazol-4-yl)amino)pyrimidin-4-yl)phenyl)propane-1-sulfonamide]	0.1 to 1	0.1 to 1
Cc1cc(-c2ccnc(Nc3cnn(C)c3)n2)cnc1NC(=O)CC(F)(F)F [TDM-180908, 3,3,3-trifluoro-N-(3-methyl-5-(2-((1-methyl-1H-pyrazol-4-yl)amino)pyrimidin-4-yl)pyridin-2-yl)propanamide]	1 to 10	0.1 to 1
Cn1cc(Nc2nccc(-c3ccc(NC(=O)[C@@H]4CC4(F)F)cc3)n2)cn1 [TDM-180934]	< 0.1	< 0.1
Cn1cc(Nc2nccc(-c3cnc(NC(=O)C4CC4)c(F)c3)n2)cn1 [TDM-180891, N-(3-fluoro-5-(2-((1-methyl-1H-pyrazol-4-yl)amino)pyrimidin-4-yl)pyridin-2-yl)cyclopropanecarboxamide]	1 to 10	1 to 10
